Here are results for 9 compounds from patent publication US20220235043A1, “SUBSTITUTED SULFONAMIDE PYRROLOPYRIDINES AS JAK INHIBITORS” (ACLARIS THERAPEUTICS, INC., priority 2019, published 2022).

A value given as a limit tells only on which side of the number the result lay.

Test [1] deals with IL-12 stimulated STAT4 phosphorylation on Tyr693 (JAK2/TYK2). In words: JAK2/TYK2 cellular target modulation: IL-12 stimulated phospho-STAT4 in human PBMC. It counts as cell-based. The following applies: IL-12 1.7 ng/ml, read-out: IL12-STAT4 IC50. The source says: (§1) Target modulation was based upon the ability of a compound to inhibit JAK isoform specific phosphorylation of selected substrates. IL-2 stimulated STAT5 phosphorylation on Tyr694 was used to assess JAK1/3 compound selectivity. GM-CSF stimulated STAT5 phosphorylation on Tyr694 was used to assess JAK2 compound selectivity. IFNγ stimulated STAT1 phosphorylation on Tyr701 was used to assess JAK1/2 compound selectivity. IL-12 stimulated STAT4 phosphorylation on Tyr693 was used to assess JAK2/TYK2 compound selectivity. For all four assays, human PBMC from frozen stocks were thawed, pelleted, resuspended in complete media (90% RPMI, 10% heat inactivated FBS, 10 mM HEPES, 47 μM 2-ME, pen/strep) and placed in wells of a 96 well V-bottom plate at 200,000 per well in 120 μl complete media. Compounds were added as 15 μl per well of 10× working stock solutions in complete media with 1% DMSO (or medium with 1% DMSO for controls) and placed on a plate shaker in a 37° C. incubator with 5% CO2 for 1 hour with gentle shaking (setting of 3). Stimulation used the addition of soluble cytokines. For the JAK1/3 phospho-STAT5 assay, 15 μl of 10× working stock recombinant human IL-2 was added to a final concentration of 25 ng/ml. For the JAK2 phospho-STAT5 assay, 15 μl of 10× working stock recombinant human GM-CSF was added to a final concentration of 5 ng/ml. For the JAK1/2 phospho-STAT1 assay, 15 μl of 10× working stock of recombinant human IFNγ was added to a final concentration of 10 ng/ml. For the JAK2/TYK2 phospho-STAT4 assay, 15 μl of 10× working stock of recombinant human IL-12 was added to a final concentration of 1.7 ng/ml. Plates were then placed back on the plate shaker in the incubator for an additional 5, 5, 10, and 25 minutes respectively upon which the plates were removed from the incubator, sealed with a plate sealer and the cells pelleted at 400×g for 5 minutes. After pelleting, the media was removed by aspiration and the cells were lysed in assay specific cell lysis buffer. The levels of phospho-STAT5 were determined using a Phospho (Tyr694)STAT5a,b Whole Cell Lysate kit from Meso Scale Discovery. Levels of phospho-STAT1 were determined using a CST-PathScan Phospho-STAT1 (Tyr701) Sandwich ELISA kit. Levels of phospho-STAT4 were determined using a Phospho-STAT4 (Tyr693) Whole Cell Lysate kit from Meso Scale Discovery.

The next test has as its target T1, JAK1 (Homo sapiens, UniProt P23458).
T1 construct: purchased Thermo Fisher Scientific (SelectScreen service)
In words: JAK1 enzyme activity assay (Thermo Fisher Selectscreen, Z-lyte). The following applies: read-out: JAK1 Inhibition IC50. The format is biochemical. As to the method:
(§2) The inhibitory potency of candidate compounds of JAK1, JAK2, and Tyk-2 was done at Thermo Fisher Scientific in their Selectscreen using a Z-lyte assay. Following are the assay details for each enzyme.
JAK1: The 2×JAK-enzyme/Tyr 06 mixture is prepared in 50 mM HEPES pH 6.5, 0.01% BRIJ-35, 10 mM MgCl2, 1 mM EGTA, 0.02% NaN3. The final 10 μL of the Kinase Reaction consists of 21.2-91.5 ng JAK1 and 2 μM Tyr 06 in 50 mM HEPES pH 7.0, 0.01% BRIJ-35, 10 mM MgCl2, 1 mM EGTA, 0.01% NaN3. After the one hour Kinase Reaction incubation, 5 μL of a 1:128 dilution of Development Reagent is added.
(§3) Data reduction for JAK1, JAK2 and TYK2 is done the same, independent of the enzyme run. In summary, background signal is defined in the absence of enzyme and uninhibited signal is defined in the presence of vehicle (2% DMSO) alone. Compounds were evaluated in an 11 point dose-response ranging from […] to 0.34 nM. IC50 values of compounds are determined using a 4 parameter logistical fit of emission ratio as a function of the concentration of compound.

In a further test the target is T2, JAK3 (a.a. 781-1124) (Homo sapiens, UniProt P52333).
T2 construct: JAK3 (a.a. 781-1124, ThermoFisher); purchased ThermoFisher
T2 sequence (P52333 781-1124): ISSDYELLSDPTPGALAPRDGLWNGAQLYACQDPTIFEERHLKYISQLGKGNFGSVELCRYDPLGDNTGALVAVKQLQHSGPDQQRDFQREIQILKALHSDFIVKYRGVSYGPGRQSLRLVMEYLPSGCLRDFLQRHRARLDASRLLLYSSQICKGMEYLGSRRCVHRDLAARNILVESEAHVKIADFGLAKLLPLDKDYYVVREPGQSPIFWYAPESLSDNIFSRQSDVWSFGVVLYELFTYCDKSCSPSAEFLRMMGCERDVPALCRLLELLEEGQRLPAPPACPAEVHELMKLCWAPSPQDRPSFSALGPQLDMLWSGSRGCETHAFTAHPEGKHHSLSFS
As to the kind of experiment: JAK3 enzyme activity assay (SRCtide phosphorylation, Caliper). It counts as biochemical. As to conditions: 1 uM ATP; read-out: JAK3 Inhibition IC50. How it is done: The activity of JAK3 (a.a. 781-1124, ThermoFisher) was quantified by measuring the phosphorylation of SRCtide (FAM-GEEPLYWSFPAKKK-NH2). Kinase reactions were run in a 384-well Greiner plate with 2% final DMSO concentration under the buffer conditions of 20 mM HEPES, pH 7.5, 10 mM MgCl2, 0.01% BSA, and 0.0005% Tween-20. The kinase reaction components were 2.5 nM JAK3, 1 μM SRCtide peptide and 1 uM ATP. Examples were tested in dose-response starting at […] (11 concentrations, 3-fold serial dilution, duplicate reactions). The reactions were incubated at room temperature for 40 minutes, then stopped by adding a 1:1 volume of 30 mM EDTA in 20 mM HEPES, pH 7.5 (15 mM EDTA final). After the reaction was stopped, the phosphorylated and unphosphorylated peptides were separated and quantified using a Caliper LC3000/EZ-Reader system and HTS Well Analyzer Software (Caliper, A PerkinElmer Company, Hopkinton, Mass.). GraFit (Erithacus Software Ltd., Horley, U.K.) was used to calculate inhibitor potency by fitting dose-response data to the 4-parameter logistical IC50 equation.

Another test has as its target T3, Tyk-2 (Homo sapiens, UniProt P29597).
T3 construct: purchased Thermo Fisher Scientific (SelectScreen service)
As to the kind of experiment: Tyk-2 enzyme activity assay (Thermo Fisher Selectscreen, Z-lyte). The format is biochemical. As to conditions: read-out: Tyk-2 Inhibition IC50. How it is done:
as §2
TYK2: The 2×TYK2/Tyr 03 mixture is prepared in 50 mM HEPES pH 6.5, 0.01% BRIJ-35, 10 mM MgCl2, 1 mM EGTA, 0.02% NaN3. The final 10 μL Kinase Reaction consists of 3.75-15 ng TYK2 and 2 μM Tyr 03 in 50 mM HEPES pH 7.0, 0.01% BRIJ-35, 10 mM MgCl2, 1 mM EGTA, 0.01% NaN3. After the one hour KinaseReaction incubation, 5 μL of a 1:4096 dilution of Development Reagent A is added.
as §3

Test [2] deals with IL-2 stimulated STAT5 phosphorylation on Tyr694 (JAK1/3). In words: JAK1/3 cellular target modulation: IL-2 stimulated phospho-STAT5 in human PBMC. The format is cell-based. The following applies: IL-2 25 ng/ml, read-out: IL2-STAT5 IC50.
Text: as §1

The target of the next test is T4, JAK2 (Homo sapiens, UniProt O60674).
T4 construct: purchased Thermo Fisher Scientific (SelectScreen service)
T4 sequence (O60674 whole entry): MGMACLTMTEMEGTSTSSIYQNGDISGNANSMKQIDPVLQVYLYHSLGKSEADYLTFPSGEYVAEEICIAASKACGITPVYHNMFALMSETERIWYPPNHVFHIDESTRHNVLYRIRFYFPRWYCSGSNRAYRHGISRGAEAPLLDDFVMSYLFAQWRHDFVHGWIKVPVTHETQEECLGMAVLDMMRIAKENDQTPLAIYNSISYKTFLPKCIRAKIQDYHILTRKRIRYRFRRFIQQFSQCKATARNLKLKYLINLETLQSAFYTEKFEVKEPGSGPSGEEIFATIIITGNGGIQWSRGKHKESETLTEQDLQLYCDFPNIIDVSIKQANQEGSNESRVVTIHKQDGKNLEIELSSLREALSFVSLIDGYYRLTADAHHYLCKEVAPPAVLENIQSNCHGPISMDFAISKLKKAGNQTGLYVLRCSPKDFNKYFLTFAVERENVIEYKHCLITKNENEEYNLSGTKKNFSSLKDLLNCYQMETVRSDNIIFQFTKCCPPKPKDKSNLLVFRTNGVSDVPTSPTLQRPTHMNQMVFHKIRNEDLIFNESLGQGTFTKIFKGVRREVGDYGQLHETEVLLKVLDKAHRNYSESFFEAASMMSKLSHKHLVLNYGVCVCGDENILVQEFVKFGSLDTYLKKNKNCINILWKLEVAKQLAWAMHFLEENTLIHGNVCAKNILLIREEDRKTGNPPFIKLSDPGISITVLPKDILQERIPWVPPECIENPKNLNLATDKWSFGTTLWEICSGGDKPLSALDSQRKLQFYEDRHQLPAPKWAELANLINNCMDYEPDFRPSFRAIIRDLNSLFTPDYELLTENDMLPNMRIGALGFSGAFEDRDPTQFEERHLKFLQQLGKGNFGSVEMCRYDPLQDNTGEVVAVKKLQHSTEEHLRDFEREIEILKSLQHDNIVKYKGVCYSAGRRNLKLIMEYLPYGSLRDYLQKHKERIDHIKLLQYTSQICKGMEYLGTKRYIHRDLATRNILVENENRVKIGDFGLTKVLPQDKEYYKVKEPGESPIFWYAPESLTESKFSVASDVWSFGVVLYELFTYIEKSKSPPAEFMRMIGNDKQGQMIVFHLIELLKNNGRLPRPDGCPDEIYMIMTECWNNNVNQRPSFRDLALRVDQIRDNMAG
In words: JAK2 enzyme activity assay (Thermo Fisher Selectscreen, Z-lyte). The format is biochemical. The following applies: read-out: JAK2 Inhibition IC50. As to the method:
as §2
JAK2: The 2×JAK2/Tyr 06 mixture is prepared in 50 mM HEPES pH 7.5, 0.01% BRIJ-35, 10 mM MgCl2, 1 mM EGTA. The final 10 μL Kinase Reaction consists of 0.12-0.5 ng JAK2 and 2 μM Tyr 06 in 50 mM HEPES pH 7.5, 0.01% BRIJ-35, 10 mM MgCl2, 1 mM EGTA. After the one hour Kinase Reaction incubation, 5 μL of a 1:128 dilution of Development Reagent A is added.
as §3

Test [3] has as its system IFNγ stimulated STAT1 phosphorylation on Tyr701 (JAK1/2). As to the kind of experiment: JAK1/2 cellular target modulation: IFNγ stimulated phospho-STAT1 in human PBMC. It counts as cell-based. As to conditions: IFNγ 10 ng/ml, read-out: Infγ-STAT1 IC50.
Text: as §1

T3 sequence (P29597 whole entry): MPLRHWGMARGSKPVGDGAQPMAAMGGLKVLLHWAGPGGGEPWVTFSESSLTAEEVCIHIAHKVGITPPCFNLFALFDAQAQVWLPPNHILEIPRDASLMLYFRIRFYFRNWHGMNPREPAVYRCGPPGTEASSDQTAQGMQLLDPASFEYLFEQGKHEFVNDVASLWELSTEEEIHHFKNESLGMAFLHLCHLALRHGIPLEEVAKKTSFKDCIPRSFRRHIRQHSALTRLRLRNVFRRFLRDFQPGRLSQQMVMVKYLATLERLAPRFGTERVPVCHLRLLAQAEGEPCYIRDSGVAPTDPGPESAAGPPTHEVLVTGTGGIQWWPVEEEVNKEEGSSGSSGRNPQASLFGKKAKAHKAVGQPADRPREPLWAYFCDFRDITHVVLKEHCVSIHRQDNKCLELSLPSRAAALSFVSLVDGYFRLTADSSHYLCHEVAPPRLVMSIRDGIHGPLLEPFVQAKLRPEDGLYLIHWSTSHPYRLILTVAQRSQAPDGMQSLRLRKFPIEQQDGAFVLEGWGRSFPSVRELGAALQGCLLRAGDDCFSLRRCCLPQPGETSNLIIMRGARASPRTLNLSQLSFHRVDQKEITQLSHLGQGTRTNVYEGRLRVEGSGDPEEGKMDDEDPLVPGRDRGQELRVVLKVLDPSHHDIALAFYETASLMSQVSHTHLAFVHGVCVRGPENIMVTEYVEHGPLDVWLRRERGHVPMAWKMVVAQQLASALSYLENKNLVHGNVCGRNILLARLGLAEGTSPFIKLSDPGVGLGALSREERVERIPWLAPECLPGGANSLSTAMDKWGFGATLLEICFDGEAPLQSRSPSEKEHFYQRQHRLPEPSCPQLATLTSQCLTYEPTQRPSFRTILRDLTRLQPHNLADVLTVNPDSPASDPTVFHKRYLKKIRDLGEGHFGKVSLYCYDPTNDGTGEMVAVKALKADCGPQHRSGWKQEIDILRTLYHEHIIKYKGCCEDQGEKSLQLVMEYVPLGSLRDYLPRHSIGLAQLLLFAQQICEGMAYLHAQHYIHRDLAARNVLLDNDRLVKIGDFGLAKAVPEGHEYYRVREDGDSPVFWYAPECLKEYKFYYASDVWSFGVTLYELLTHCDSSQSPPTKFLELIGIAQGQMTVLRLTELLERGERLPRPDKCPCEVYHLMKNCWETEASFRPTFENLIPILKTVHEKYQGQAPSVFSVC
T1 sequence (P23458 whole entry): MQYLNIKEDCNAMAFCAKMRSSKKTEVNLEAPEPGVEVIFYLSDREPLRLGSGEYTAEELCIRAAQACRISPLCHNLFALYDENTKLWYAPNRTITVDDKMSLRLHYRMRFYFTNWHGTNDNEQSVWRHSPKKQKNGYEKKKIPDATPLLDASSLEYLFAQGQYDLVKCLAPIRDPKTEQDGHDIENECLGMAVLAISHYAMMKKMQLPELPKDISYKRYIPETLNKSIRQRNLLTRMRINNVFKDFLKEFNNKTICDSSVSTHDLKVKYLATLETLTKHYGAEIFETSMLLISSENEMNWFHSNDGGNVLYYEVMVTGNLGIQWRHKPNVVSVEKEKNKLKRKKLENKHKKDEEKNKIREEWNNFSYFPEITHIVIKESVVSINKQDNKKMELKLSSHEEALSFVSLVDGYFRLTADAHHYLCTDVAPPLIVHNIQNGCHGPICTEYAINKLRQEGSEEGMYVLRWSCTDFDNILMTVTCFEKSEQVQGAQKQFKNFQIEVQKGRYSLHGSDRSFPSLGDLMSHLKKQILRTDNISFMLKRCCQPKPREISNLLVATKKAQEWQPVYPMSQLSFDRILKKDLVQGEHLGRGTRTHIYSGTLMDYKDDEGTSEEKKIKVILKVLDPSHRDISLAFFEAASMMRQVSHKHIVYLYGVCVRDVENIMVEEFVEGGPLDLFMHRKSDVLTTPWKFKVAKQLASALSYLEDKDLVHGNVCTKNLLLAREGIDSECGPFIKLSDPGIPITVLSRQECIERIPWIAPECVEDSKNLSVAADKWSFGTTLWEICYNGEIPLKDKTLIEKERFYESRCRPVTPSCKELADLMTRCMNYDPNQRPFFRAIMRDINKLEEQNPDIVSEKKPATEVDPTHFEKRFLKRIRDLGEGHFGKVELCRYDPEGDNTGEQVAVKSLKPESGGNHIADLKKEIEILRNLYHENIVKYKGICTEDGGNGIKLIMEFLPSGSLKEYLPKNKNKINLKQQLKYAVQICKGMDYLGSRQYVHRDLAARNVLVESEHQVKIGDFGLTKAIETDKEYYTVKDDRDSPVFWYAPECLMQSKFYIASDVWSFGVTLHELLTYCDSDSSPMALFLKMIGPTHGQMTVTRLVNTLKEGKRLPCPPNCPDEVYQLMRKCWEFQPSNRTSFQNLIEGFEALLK

Usually IC50 stands for the concentration that gives 50% inhibition. Regarding `Cc1nnc(-c2cnc3[nH]ccc3c2N[C@H]2C[C@@H](NS(=O)(=O)CCCC#N)C2)s1` [Example 77, 3-cyano-N-((1s,3s)-3-((5-(5-methyl-1,3,4-thiadiazol-2-yl)-1H-pyrrolo[2,3-b]pyridin-4-yl)amino)cyclobutyl)propane-1-sulfonamide], the IC50 in test [1] is more than 1000 nM; on JAK1, not above 10 nM; on JAK3 (a.a. 781-1124), 10 to 100 nM; on Tyk-2, 10 to 100 nM; in test [2] it was 100 to 1000 nM; at JAK2 it was not above 10 nM. Moreover, the IC50 in test [3] lay in the range of 100 to 1000 nM.

`CCCS(=O)(=O)N[C@H]1C[C@@H](Nc2c(-c3nnc(C)o3)cnc3[nH]ccc23)C1` [Example 82, N-((1s,3s)-3-((5-(5-methyl-1,3,4-oxadiazol-2-yl)-1H-pyrrolo[2,3-b]pyridin-4-yl)amino)cyclobutyl)propane-1-sulfonamide]: the IC50 in test [1] was more than 1000 nM; at JAK1 it was 10 to 100 nM; at JAK3 (a.a. 781-1124), 100 to 1000 nM; at Tyk-2, 100 to 1000 nM; in test [2] it was 100 to 1000 nM; at JAK2, 10 to 100 nM. For the same compound, in test [3], the IC50 is more than 1000 nM.

For the compound `CCOC(=O)c1cnc2[nH]ccc2c1N[C@H]1C[C@@H](NS(=O)(=O)c2cc(C#N)ccn2)C1` [Example 5, ethyl 4-(((1s,3s)-3-((4-cyanopyridine)-2-sulfonamido)cyclobutyl)amino)-1H-pyrrolo[2,3-b]pyridine-5-carboxylate], the IC50 in test [1] is more than 1000 nM; at JAK1, not above 10 nM; on JAK3 (a.a. 781-1124), 10 to 100 nM; on Tyk-2 it was 10 to 100 nM; in test [2] it was 100 to 1000 nM; at JAK2, 10 to 100 nM. Moreover, the IC50 in test [3] was 100 to 1000 nM.

With `N#Cc1cccc(S(=O)(=O)N[C@H]2C[C@@H](Nc3c(-c4ccncn4)cnc4[nH]ccc34)C2)c1` [Example 64, 3-cyano-N-((1s,3s)-3-((5-(pyrimidin-4-yl)-1H-pyrrolo[2,3-b]pyridin-4-yl)amino)cyclobutyl)benzenesulfonamide], the half-inhibitory concentration (IC50) in test [1] was more than 1000 nM; on JAK1, not above 10 nM; at JAK3 (a.a. 781-1124), not above 10 nM; at Tyk-2, not above 10 nM; in test [2], not above 100 nM; on JAK2 it was not above 10 nM. For the same compound, the IC50 in test [3] lay within 100 to 1000 nM.

For `N#Cc1cccc(S(=O)(=O)N[C@H]2C[C@@H](Nc3c(-c4nccs4)cnc4[nH]ccc34)C2)c1` [Example 69, 3-cyano-N-((1s,3s)-3-((5-(thiazol-2-yl)-1H-pyrrolo[2,3-b]pyridin-4-yl)amino)cyclobutyl)benzenesulfonamide], the half-inhibitory concentration (IC50) was 100 to 1000 nM in test [1]; not above 10 nM on JAK1; not above 10 nM on JAK3 (a.a. 781-1124); not above 10 nM on Tyk-2; not above 100 nM in test [2]; not above 10 nM on JAK2. The IC50 in test [3] lay in the range of 100 to 1000 nM.

Consider `CNC(=O)c1ccnc(-c2cnc3[nH]ccc3c2N[C@H]2C[C@@H](NS(=O)(=O)c3cccc(C#N)c3)C2)c1` [Example 66, 2-(4-(((1s,3s)-3-((3-cyanophenyl)sulfonamido)cyclobutyl)amino)-1H-pyrrolo[2,3-b]pyridin-5-yl)-N-methylisonicotinamide], for which the IC50 was more than 1000 nM in test [1]; not above 10 nM at JAK1; 100 to 1000 nM on JAK3 (a.a. 781-1124); 10 to 100 nM on Tyk-2; 100 to 1000 nM in test [2]; 10 to 100 nM on JAK2. In addition, the IC50 in test [3] was more than 1000 nM.

As for `N#Cc1cccc(S(=O)(=O)N[C@H]2C[C@@H](Nc3c(-c4nncs4)cnc4[nH]ccc34)C2)c1` [Example 78, N-((1s,3s)-3-((5-(1,3,4-thiadiazol-2-yl)-1H-pyrrolo[2,3-b]pyridin-4-yl)amino)cyclobutyl)-3-cyanobenzenesulfonamide], the IC50 in test [1] is more than 1000 nM; on JAK1, not above 10 nM; at JAK3 (a.a. 781-1124), 10 to 100 nM; on Tyk-2, not above 10 nM; in test [2] it was not above 100 nM; on JAK2, not above 10 nM. In addition, the IC50 in test [3] fell in the range of 100 to 1000 nM.

On to `N#Cc1ccnc(S(=O)(=O)N[C@H]2C[C@H](Nc3c(-c4ccncn4)cnc4[nH]ccc34)C2)c1` [Example 63, 4-cyano-N-((1r,3r)-3-((5-(pyrimidin-4-yl)-1H-pyrrolo[2,3-b]pyridin-4-yl)amino)cyclobutyl)pyridine-2-sulfonamide], for which the IC50 in test [1] was more than 1000 nM; at JAK1, not above 10 nM; on JAK3 (a.a. 781-1124), 10 to 100 nM; on Tyk-2, 10 to 100 nM; in test [2] it was 100 to 1000 nM; on JAK2 it was not above 10 nM. Further, the IC50 in test [3] lay within 100 to 1000 nM.

Regarding `Cc1csc(-c2cnc3[nH]ccc3c2N[C@H]2C[C@@H](NS(=O)(=O)c3cccc(C#N)c3)C2)n1` [Example 73, 3-cyano-N-((1s,3s)-3-((5-(4-methylthiazol-2-yl)-1H-pyrrolo[2,3-b]pyridin-4-yl)amino)cyclobutyl)benzenesulfonamide], the half-maximal inhibitory concentration (IC50) in test [1] is 100 to 1000 nM; at JAK1 it was not above 10 nM; on JAK3 (a.a. 781-1124), not above 10 nM; on Tyk-2, 10 to 100 nM; in test [2], 100 to 1000 nM; at JAK2 it was not above 10 nM. Further, the concentration for half-maximal inhibition (IC50) in test [3] was in the range of 100 to 1000 nM.
